# Like-named read-outs stand apart in the source and are kept apart here.
# Legend:
# [1] = tested on: LNCaP human prostatic cancer cell line; test: Androgen-dependent growth of LNCaP cells; settings: for reversal of testosterone-stimulated LNCaP growth (in words): inhibitor 0.3-5 μM, 9 days; for stimulation of LNCaP cell proliferation (in words): hydroxyflutamide 0.3-1 μM
# Procedure: The ability of various inhibitors to reverse the stimulatory effect of testosterone on the growth of the LNCaP human prostatic cancer cell line was tested by comparing cell number in wells treated for 9 days with either drug vehicle only (control), 0.1 nM testosterone only, or 0.1 nM testosterone with inhibitor at 0.3, 1, 2.5, or 5 μM.
# [2] = tested on: human prostatic tissue (BPH or prostate cancer); test: Prostate tissue in histoculture, DNA synthesis ([3H]-thymidine uptake); settings: for reversal of testosterone-stimulated DNA synthesis (in words), 1 μM: inhibitor 1 μM, testosterone 1 μM, FIG. 1; for inhibition of testosterone-stimulated DNA synthesis (in words), 0.3 μM: inhibitor 0.3 μM
# Procedure: We recently developed a histoculture method to evaluate the growth inhibiting properties of the compounds on human prostatic tissue. […] The tissue samples were then incubated for 3 days in fresh medium/treatment containing 2 μCi/ml [^3 H]-thymidine. Tissue was then digested and DNA extracted. For each sample, [^3 H]-thymidine uptake was normalized to DNA content. […] This finding is consistent with the compound acting as an antiandrogen. None of the compounds produced an independent effect on DNA synthesis in the absence of added androgens.
# [3] = biological target: 17α-hydroxylase/C17,20-lyase; settings: read-out: Ki (literature); cited from earlier work
# [4] = biological target: T1, human 17α-hydroxylase/C17,20-lyase (Homo sapiens, UniProt P05093); test: Inhibition of human testicular 17α-hydroxylase/C17,20-lyase (enzyme complex as a whole); assay type: biochemical; settings: for inhibition of 17α-hydroxylase/C17,20-lyase (in words): NI = no inhibition
# T1 construct: incubating human testicular microsomes; from tissue; host or cells: human testis, microsomes
# T1 sequence (P05093 1-508): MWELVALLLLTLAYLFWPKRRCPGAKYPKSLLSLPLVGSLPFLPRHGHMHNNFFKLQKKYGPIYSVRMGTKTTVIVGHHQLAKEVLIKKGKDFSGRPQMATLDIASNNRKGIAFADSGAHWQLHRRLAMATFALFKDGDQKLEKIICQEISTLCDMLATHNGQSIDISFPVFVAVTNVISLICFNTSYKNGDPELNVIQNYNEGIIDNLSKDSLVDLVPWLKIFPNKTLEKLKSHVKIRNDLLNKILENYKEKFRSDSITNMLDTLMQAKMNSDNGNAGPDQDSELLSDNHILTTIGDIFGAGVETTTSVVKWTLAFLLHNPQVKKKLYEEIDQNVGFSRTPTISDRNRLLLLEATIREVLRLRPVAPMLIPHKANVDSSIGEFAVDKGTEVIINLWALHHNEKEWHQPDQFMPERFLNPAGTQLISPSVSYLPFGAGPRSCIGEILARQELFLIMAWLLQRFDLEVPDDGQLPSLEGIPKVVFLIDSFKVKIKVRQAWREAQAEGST
# Procedure: (§1) The conversion of radiolabeled pregnenolone to 17α-hydroxypregnenolone and DHEA by 17α-hydroxylase/C17,20 -lyase was measured by incubating human testicular microsomes with different concentration of test compounds. Reverse phase HPLC was used to separate and accurately quantify the amount of substrate and metabolites. The 17α-hydroxylase and C17,20 -lyase activities were calculated separately. The activity of 17α-hydroxylase was calculated from the conversion of pregnenolone to 17α-hydroxypregnenolone and DHEA and the activity of C17,20 -lyase was based on the conversion of pregnenolone to DHEA. Although 17α-hydroxypregnenolone is the substrate converted to DHEA by C17,20 -lyase, it has been reported that this 17α-hydroxy intermediate is not released from the enzyme binding site during conversion (Nakajin et al., 1981a,b). Also, there are species differences in substrate requirements. Pregnenolone is the natural substrate rather than progesterone for human testicular 17α-hydroxylase and C17,20 -lyase. Therefore, pregnenolone was used as substrate for measuring the activity of this enzyme complex.
# [5] = tested on: LNCaP human prostatic tumors; test: Human prostatic cancer (LNCaP) xenograft in male nude mice; assay type: in vivo, human (LNCaP) tumors in BALB/c male athymic mice; settings: five weeks
# Procedure: We have reported that inoculation of MCF-7 breast cancer cells in Matrigel increases mammary tumor formation in nude mice (Yue et al., 1994). The same procedure was therefore utilized to develop tumors from human prostatic cancer cells (LNCAP) in male nude mice. BALB/c male athymic mice, 4-6 weeks old, were inoculated sc with LNCaP cells suspended in Matrigel (10 mg/ml). Four sites per mouse were injected with 1.8×10^6 cells in 0.1 ml Matrigel. Treatment began when the tumor reached about 100 mm^3 in volume. Tumors were measured before the treatment began and once a week during treatment. Tumor volume was calculated by the formula 4/3πr1^2 r2 (r1 <r2).At the end of treatment, the mice were sacrificed and individual tumors were weighed. The latency of tumor development was 30-40 days and overall tumorigenicity was 82%.
# In a further experiment, two mice were treated with I-16 (1 mg/mouse/day, s.c.) beginning 45 days after cell inoculation. Two mice received vehicle as controls. […] The mean tumor weight was 198.78±72 mg in I-16 treated mice compared to 386.3±147.2 mg in the control group. In other experiments, I-47 and I-49 were effective in controlling tumor growth. The total tumor volume of the control mice increased to 884.0% of the initial volume.
# [6] = biological target: T2, Human Prostatic 5α-Reductase (Homo sapiens, UniProt P31213); test: Inhibition of human prostatic 5α-reductase (prostatic microsomes, [3H]testosterone); settings: for inhibition at 0.1 µM: read-out: % Inhibition of 5α-reductase, [I] 100 nM; for inhibition at 0.01 µM: read-out: % Inhibition of 5α-reductase, [I] 10 nM
# T2 sequence (P31213 1-254): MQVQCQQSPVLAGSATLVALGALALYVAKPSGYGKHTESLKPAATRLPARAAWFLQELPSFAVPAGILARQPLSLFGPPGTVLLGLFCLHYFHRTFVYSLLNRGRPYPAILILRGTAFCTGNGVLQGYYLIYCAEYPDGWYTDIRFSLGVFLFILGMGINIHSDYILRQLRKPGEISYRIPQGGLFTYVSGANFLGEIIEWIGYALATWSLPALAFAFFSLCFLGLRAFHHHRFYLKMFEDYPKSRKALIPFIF
# [7] = biological target: T3, Human Testicular 17α-Hydroxylase (Homo sapiens, UniProt P05093); test: Inhibition of human testicular 17α-hydroxylase (pregnenolone substrate, testicular microsomes); assay type: biochemical
# T3 construct: incubating human testicular microsomes; from tissue; host or cells: human testis, microsomes
# T3 sequence (P05093 1-508): T1 sequence (P05093 1-508)
# Procedure: as §1
# [8] = biological target: T4, Human Testicular C17,20-lyase (Homo sapiens, UniProt P05093); test: Inhibition of human testicular C17,20-lyase (pregnenolone substrate, testicular microsomes); assay type: biochemical
# T4 construct: incubating human testicular microsomes; from tissue; host or cells: human testis, microsomes
# T4 sequence (P05093 1-508): T1 sequence (P05093 1-508)
# Procedure: as §1
# [9] = tested on: adrenal 17α-hydroxylase/C17,20-lyase; test: Inhibition of adrenal 17α-hydroxylase/C17,20-lyase; assay type: biochemical; settings: guinea pig adrenal
# [10] = Table 1, NI = no inhibition, read-out: IC50 17α-OHase
# [11] = Table 3, first figure of 17α-hydroxylase/lyase pair, read-out: IC50 17α-hydroxylase
# [12] = first figure of pair, read-out: IC50 17α-hydroxylase
# [13] = Table 1, NI = no inhibition, CI = complete inhibition, read-out: IC50 C17,20 lyase
# [14] = second figure of pair, read-out: IC50 C17,20-lyase
SMILES,"inhibition of 17α-hydroxylase/C17,20-lyase (in words) [4]",reversal of DHT-stimulated LNCaP growth (in words) ([1]; 0.03 nM DHT),"reversal of testosterone-stimulated DNA synthesis (in words), 1 μM [2]",inhibition at 0.1 µM [6],"IC50 [7, 10]","IC50 [8, 13]",IC50 ([6]; IC50 5α-reductase),"inhibition of testosterone-stimulated DNA synthesis (in words), 0.3 μM [2]","IC50 ([6]; IC50 5α-reductase, Table 2)",inhibition at 0.01 µM [6],also measured
"C[C@]12CC[C@H]3[C@@H](CCC4=CC(=O)CC[C@@]43C)[C@@H]1CC[C@@H]2O [Testosterone, reference compound]",,,,,,,,,,,"fold induction at 0.0001 µM ([1]; Homo sapiens, LNCaP, 216 h, read-out: stimulation of LNCaP growth by testosterone): 2; fold induction at 1 µM ([2]; Homo sapiens, read-out: stimulation of DNA synthesis by testosterone): ~2"
C[C@]12CC[C@H]3[C@@H](CC=C4C[C@@H](O)CC[C@@]43C)[C@@H]1CC[C@@H]2NC1CC1 [17β-(cyclopropylamino)androst-5ene-3-ol],,,,,,,,,,,Ki [3]: 90 nM
"C[C@]12CC[C@H](O)CC1=CC[C@@H]1[C@@H]2CC[C@]2(C)C(c3c[nH]cn3)=CC[C@@H]12 [Compound I-49, 17β-(4'-imidazolyl)-androsta-5,16-dien-3β-ol]",potent inhibitors,dose-dependent reversal,partially effective,26.3%,8 nM,9 nM,,,,,"fold increase of inhibition by 16,17 double bond ([4]; vs I-47): 2 fold; times more potent than ketoconazole ([4]; vs ketoconazole): 10-50 times; reversal of DHT-stimulated LNCaP growth at 5 μM (in words) ([1]; 0.03 nM DHT, inhibitor 5 μM): nearly complete reversal; reversal of testosterone-stimulated LNCaP growth (in words) ([1]; 0.1 nM testosterone): dose-dependent reversal; total tumor volume (% of initial volume), 5 weeks ([5]; 4 mice per group, control 884.0%, FIG. 2): 315.3%; mean tumor weight, 5-week experiment ([5]; control 1310.5±1125.9 mg, I-49 p<0.05 vs control): 255.9 ± 176.9 mg; IC50 [7, 11]: 8.82 nM; IC50 [7, 12]: 4 nM; IC50 [8, 14]: 4 nM; effect on adrenal enzyme (in words) [9]: very little effect"
CC(=NO)[C@H]1CC[C@H]2[C@@H]3CCC4=CC(=NO)CC[C@]4(C)[C@H]3CC[C@]12C [Compound I-43],decreased activity,,without effect,,90 nM,70 nM,,,,,"inhibition of 5α-reductase (in words) ([6]; NI = no inhibition): decreased activity; IC50 ([6]; read-out: IC50 5α-reductase, Table 2): 1270 nM"
"C[C@]12CC[C@H]3[C@@H](CCC4=CC(=O)CC[C@@]43C)[C@@H]1CC[C@@H]2c1c[nH]cn1 [Compound I-41, 17β-(4'-imidazolyl)-androst-4-en-3-one]",,,without effect,,59 nM,5 nM,122 nM,,,,"IC50 ([6]; IC50 5α-reductase, Table 3, NI = no inhibition): 122 nM; IC50 [7, 11]: 59.4 nM; IC50 [7, 12]: 59 nM; IC50 ([8]; Table 3, second figure of pair, CI = complete inhibition, read-out: IC50 lyase): 5.61 nM; IC50 [8, 14]: 5 nM"
C[C@@H](O)[C@H]1CC[C@H]2[C@@H]3CCC4=CC(=O)CC[C@]4(C)[C@H]3CC[C@]12C [Compound I-34],potent inhibition,stimulation of growth above the level produced by DHT,almost complete reversal,64.5%,,,90 nM,partially effective,90 nM,16.1%,stimulation of LNCaP cell proliferation (in words) ([1]; 0.1 nM testosterone): stimulated cell proliferation
"CCN(CC)C(=O)[C@H]1CC[C@H]2[C@@H]3CC[C@H]4N(C)C(=O)CC[C@]4(C)[C@H]3CC[C@]12C [Compound 4MA, reference compound]",,dose-dependent reversal,almost complete reversal,92%,,,,highly effective,10 nM,71.9%,"reversal of testosterone-stimulated LNCaP growth at 5 μM (in words) ([1]; 0.1 nM testosterone, inhibitor 5 μM): almost completely reversed; reversal of testosterone-stimulated LNCaP growth (in words) ([1]; 0.1 nM testosterone): dose-dependent reversal; IC50 ([1]; Homo sapiens, LNCaP, 216 h, read-out: concentration reducing the stimulatory effect of testosterone by 50%): ≤ 1000 nM"
C[C@H](O)[C@H]1CC[C@H]2[C@@H]3CCC4=CC(=O)CC[C@]4(C)[C@H]3CC[C@]12C [Compound I-33],,,almost complete reversal,87.6%,,,13 nM,highly effective,13 nM,28.5%,"stimulation of LNCaP cell proliferation (in words) ([1]; 0.1 nM testosterone): stimulated cell proliferation; IC50 ([7]; IC50 17α-OHase): 2840 nM; IC50 ([8]; IC50 C17,20 lyase): 1430 nM"

# — US5994334A, “Androgen synthesis inhibitors” (priority 1997, dated 1999)
